Source: patent US6569872B1, “Use of neurokinin receptor antagonists to treat androgen-dependent diseases” (Schering Corporation, priority 2001, dated 2003)

How the values were obtained:
[1] = test system: serum testosterone; assay: Reduction of LHRH-stimulated serum testosterone in mice; format: in vivo, male nude mice
Method: The effects of Compounds A, B, C, D, E and F on serum testosterone were tested in mice given intramuscular (i.m.) luteinizing hormone releasing hormone (LHRH) to drive testicular androgen biosynthesis.
Male nude mice (8 weeks old, 5 mice/group) were dosed orally with 0, 5, 15, 45, 90, 150 or 300 mg/kg of Compound A in 20% hydroxypropyl β-cyclodextran (HPβCD). After 1 hour, animals were given an i.m. injection of LHRH (250 ng/kg in 50 μl Sterile Water) into the biceps femoris muscle to drive testosterone production. After an additional hour, the animals were anesthetized with ketamine/xylazine, bled by cardiac puncture, and serum testosterone levels were determined by radioimmunoassay.
The effects of 90 mg/kg of Compounds A, B, C, D, E and F on LHRH-stimulated serum testosterone levels were compared in male nude mice.

[2] = test system: serum concentrations of testosterone (T) and luteinizing hormone (LH); assay: Serum LH and testosterone in male dogs dosed for 1, 3 or 7 days; format: in vivo, beagle dogs
Method: To further characterize reproductive system effects, adult male healthy beagle dogs were administered sterile water (placebo) or Compound A orally by gavage for 1, 3 or 7 days (Day 0=first day of dosing). Serum was collected from blood for determination of serum concentrations of testosterone (T) and luteinizing hormone (LH).
There were typically one to three spikes of LH and T within the sampling period. In many dogs the LH spikes preceded the T spikes by 20 to 40 minutes.
In dogs receiving Compound A, serum LH and T concentrations were generally near the lower baseline values at the first time point evaluated (1 hour after the first doses), and then typically declined throughout the 4-hour evaluation. This trend toward decreased LH and T concentrations from 60 to 300 minutes postdose was statistically significant (p<0.0001). LH and T remained at low concentrations for the remainder of the study. […] The decline in LH to very low (mean values of 1.5 to 3.8 ng/ml for Compound A versus 10.2 to 14.8 ng/ml for Controls) concentration was more rapid than that seen with T. In dogs receiving Compound A, serum LH and T concentrations at Day 2 were generally lower than those at Day 0. Serum LH concentrations on Day 6 were similar to those on Day 2, while serum T concentrations on Day 6 were generally lower than those on Day 2. By Days 2 and 6, some LH and many T samples were below the limit of detection despite using sensitive assays.

[3] = test system: Shionogi mouse mammary carcinoma tumors; assay: Androgen-dependent tumor growth, Shionogi carcinoma in nude mice; format: in vivo; details: end of 15 days, relative to vehicle control
Method: (§1) Following the observation of reduction of serum testosterone in mice, the effects of Compound A on androgen-dependent tumor growth were tested. […] Shionogi mouse mammary carcinoma tumors were grown in nude mice as an androgen-dependent model, and DU-145 human prostate carcinoma tumors were grown in nude mice as an androgen-independent model.
In the Shionogi experiment, male nu/nu mice (8-9 weeks old, 10 mice/group) were inoculated with Shionogi carcinoma cells and tumors were grown to approximately 150 mm^3 before initiation of Compound A administration. Mice were treated twice daily, i.p. with 20% HPβCD vehicle control, 5 mg/kg Compound A or 15 mg/kg Compound A. Tumor growth was inhibited over 15 days of Compound A treatment relative to vehicle control animals. At the end of 15 days, mean tumor volumes were inhibited by 41% and 69% in the 5 mg/kg and 15 mg/kg groups, respectively.

[4] = format: in vivo
Method: Compound A was administered as an aqueous solution in sterile water by daily oral gavage to adult healthy beagle dogs.
The dogs received 28 consecutive daily doses at dose levels of 0, 15, 30 or 60 mg/kg. […] Organ weights of male and female reproductive tract tissues were 33-86% lower than that of concurrent controls, and occurred in all dose groups. […] In the epididymides, vacuolation (mild) of epithelium was also present in the mid- and high-dose males. […] This was characterized in the ovaries by a lack of antral follicles, and most follicles that were present were small and contained only small numbers of granulosa cells. Compared to control dogs, the uterine bodies and horns had less myometrial tissue present. Uterine epithelium from dogs receiving Compound A with immature uteri had very little cytoplasm present. The changes in the female reproductive system may be related to atrophy rather than immaturity.

[5] = test system: serum LH, T, DHEA, and androstenedione; assay: Lower-dose 7-day study in male beagle dogs; format: in vivo
Method: Another study was conducted to evaluate the effects of lower doses (0.1, 0.5, 2.5, 12.5 mg/kg) of Compound A administered to male beagle dogs for 7 days.

[6] = test system: DU-145 human prostate carcinoma tumors; assay: Androgen-independent tumor growth, DU-145 in nude mice; format: in vivo; details: 15, 45 or 90 mg/kg twice daily i.p., over 30 days
Method: as §1
In the DU-145 experiment, male nu/nu mice (9-10 weeks old, 10 mice/group) were inoculated with DU-145 prostate carcinoma cells and tumors were grown to approximately 65 mm^3 before initiation of Compound A administration. Mice were treated twice daily, i.p. with 20% HPβCD vehicle control, 15 mg/kg, 45 mg/kg or 90 mg/kg of Compound A. As expected, tumor growth was not inhibited over 30 days in any of the Compound A groups.

[7] = test system: serum LH, T, androstenedione, and DHEA; assay: Reversibility of the effects on hormones, 7 days dosing and 14-day postdose period; format: in vivo, dogs
Method: The following investigative study was conducted to determine whether the changes observed after 1 week of Compound A administration were reversible after a 14-day postdose period. The first day of dosing was Day 1.
There were eight dogs in Group 1, who received placebo (sterile water) and twelve dogs in Group 2, who received Compound A. Dogs were scheduled to be dosed for 7 days; however, one dog died shortly after receiving the sixth dose of compound A. All eight dogs in Group 1 had hormonal evaluations on Day 7; 4 of these dogs were necropsied on Day 8. The remaining four dogs in Group 1 had hormonal evaluations on Day 21 (14 days postdose), and were necropsied on Day 22. In Group 2, eleven dogs had hormonal evaluations on Day 7, and five were necropsied on Day 8. The remaining six dogs in Group 2 had hormonal evaluations on Day 21 (14 days postdose) and were necropsied on Day 22.
There were typically one to three spikes of LH and T within the sampling period. In many dogs the LH spikes preceded the T spikes by 30 to 60 minutes. Androstenedione and DHEA concentrations tended to rise and fall with those of T, although in some dogs there were many values below the limit of quantitation.
In dogs receiving Compound A at Day 7, serum LH, T, androstenedione, and DHEA concentrations were often very low. Group mean values for LH, T, androstenedione, and DHEA were 14.7, 1.5, 0.37, and 0.88 ng/ml for dogs receiving sterile water, while dogs receiving Compound A had group mean values of 2.4, 0.05, 0.01 and 0.03 ng/ml, respectively. […] It should also be noted that on Day 7 almost all T, androstenedione, and DHEA samples were below the limit of detection despite using sensitive assays.

[8] = males, all dose groups, 28 days oral
[9] = 7 days, 0.1, 0.5, 2.5, 12.5 mg/kg
[10] = 7 days, doses of 2.5 and 12.5 mg/kg

For CN(C/C(=N\O)C(CCN1CCC(N2CCCC(CC(N)=O)C2=O)CC1)c1ccc(Cl)c(Cl)c1)C(=O)c1cc(Cl)cc(Cl)c1 (stereo not shown) [B], which “reduction of LHRH-stimulated serum testosterone (statistical significance)” value (from here on “reduction … (statistical significance)”) ([1]; 90 mg/kg, male nude mice) is on record?
Its value is “statistically significant (p<0.01) reduction”.

With CO/N=C(\CN(C)C(=O)c1cc(Cl)cc(Cl)c1)C(CCN1CCC(N2CCCC(CC(N)=O)C2=O)CC1)c1ccc(Cl)c(Cl)c1 (stereo not shown) [C] as the compound, how does the “reduction … (statistical significance)” value ([1]; 90 mg/kg, male nude mice) read?
Its value is “statistically significant (p<0.01) reduction”.

For CNC(=O)CC1CCCN(C2CCN(CCC(/C(CN(C)C(=O)c3cc(Cl)cc(Cl)c3)=N/OC)c3ccc(Cl)c(Cl)c3)CC2)C1=O (stereo not shown) [Compound A], which “group mean serum T concentration compared to concurrent controls” value ([2]; Day 0, 2 and 6, p≦0.0001) is on record?
The value was “significant lower”.

And the “group mean serum LH concentration compared to concurrent controls” value ([2]; Day 0, 2 and 6, p≦0.0005)?
Its value is “significant lower”.

What about the “pulsatile patterns of serum LH and T” value ([2]; male beagle dogs, oral gavage) of the same compound?
Its value is “lacked the normal pulsatile patterns”.

What about the “inhibition of mean tumor volume” value ([3]; 5 mg/kg twice daily i.p.) of the same compound?
The value was 41%.

And the “inhibition of mean tumor volume” value ([3]; 15 mg/kg twice daily i.p.)?
Its value is 69%.

What about the “inhibition of serum testosterone” value ([1]; 15 mg/kg oral in 20% HPβCD, LHRH i.m. after 1 hour, bled after an additional hour) of the same compound?
The value was 62%.

And the “reduction … (statistical significance)” value ([1]; 90 mg/kg, male nude mice)?
Its value is “statistically significant (p<0.01) reduction”.

What about the “maximum inhibition of serum testosterone” value ([1]; 300 mg/kg oral in 20% HPβCD, LHRH i.m. after 1 hour, bled after an additional hour) of the same compound?
The value was 83%.

What about the “organ weights of male and female reproductive tract tissues, lower than concurrent controls” value ([4]; beagle dogs, oral gavage, 28 daily doses, all dose groups (15, 30, 60 mg/kg)) of the same compound?
Its value is 33-86%.

And the “appearance of ovaries and uteri” value ([4]; females, at least one dog in each dose group, 28 days oral)?
The value was “appeared immature”.

And the “aspermia/hypospermia in the epididymides” value ([4]; males, 28 days oral)?
Its value is “observed in all dose groups”.

And the “atrophy of epididymides (microscopic grade)” value [4, 8]?
The value was “minimal to moderate”.

And the “atrophy of prostate gland (microscopic grade)” value [4, 8]?
The value was “mild to moderate”.

And the “atrophy of seminiferous tubules in the testes (microscopic grade)” value [4, 8]?
The value was “severe”.

And the “vacuolation of epithelium in the epididymides (grade)” value ([4]; mid- and high-dose males, 28 days oral)?
The value was “mild”.

And the “histopathologic changes in testes and epididymides” value [5, 9]?
Its value is “degeneration and cellular debris in the seminiferous tubules, interstitial cell vacuolation in the testes, epithelial vacuolation, atrophy, apoptosis, hypospermia, and interstitial edema of the epididymides”.

And the “histopathologic changes of the prostate gland” value [5, 9]?
Its value is “Epithelial apoptosis and atrophy”.

And the “decrease in serum DHEA (dehydroepiandrosterone)” value [5, 10]?
The value was “clearly observed”.

And the “decrease in serum LH” value [5, 10]?
Its value is “clearly observed”.

What about the “decrease in serum T” value [5, 10] of the same compound?
The value was “clearly observed”.

And the “decrease in serum androstenedione” value [5, 10]?
Its value is “clearly observed”.

What about the tumor growth inhibition [6] of the same compound?
The tumor growth inhibition was “not inhibited”.

What about the “group mean serum androstenedione” value ([7]; Day 7, sterile water group 0.37 ng/ml) of the same compound?
Its value is 0.01 ng/mL.

What about the “group mean serum DHEA” value ([7]; Day 7, sterile water group 0.88 ng/ml) of the same compound?
The value was 0.03 ng/mL.

What about the “group mean serum T” value ([7]; Day 7, sterile water group 1.5 ng/ml) of the same compound?
The value was 0.05 ng/mL.

What about the “group mean serum LH” value ([7]; Day 7, sterile water group 14.7 ng/ml) of the same compound?
The value was 2.4 ng/mL.

What about the “serum DHEA group mean and peak mean concentrations versus concurrent controls” value ([7]; Day 21 (14 days postdose)) of the same compound?
The value was “not significantly different”.

And the “serum LH group mean and peak mean concentrations versus concurrent controls” value ([7]; Day 21 (14 days postdose))?
Its value is “not significantly different”.

And the “serum T group mean and peak mean concentrations versus concurrent controls” value ([7]; Day 21 (14 days postdose))?
The value was “not significantly different”.

And the “serum androstenedione group mean and peak mean concentrations versus concurrent controls” value ([7]; Day 21 (14 days postdose))?
Its value is “not significantly different”.

And the mortality ([7]; twelve dogs in the group, shortly after the sixth dose)?
Its mortality is “one dog died”.

What does the source list for CNC(=O)CC1CCCN(C2CCN(CCC(/C(CNC(=O)c3cc(Cl)cc(Cl)c3)=N/OC)c3ccc(Cl)c(Cl)c3)CC2)C1=O (stereo not shown) [Compound D]?
reduction of LHRH-stimulated serum testosterone (statistical significance) ([1]; 90 mg/kg, male nude mice): failed to reach statistical significance; reduction of mean serum testosterone ([1]; 90 mg/kg, male nude mice, LHRH-stimulated): 19%

For CO/N=C(\CNC(=O)c1cc(Cl)cc(Cl)c1)C(CCN1CCC(N2CCC[C@H](CC(N)=O)C2=O)CC1)c1ccc(Cl)c(Cl)c1 (stereo partly shown) [E], which “reduction … (statistical significance)” value ([1]; 90 mg/kg, male nude mice) is on record?
Its value is “statistically significant (p<0.01) reduction”.

For CNC(=O)C[C@H]1CCCN(C2CCN(CC[C@@H](/C(CN(C)C(=O)c3cc(Cl)cc(Cl)c3)=N/O)c3ccc(Cl)c(Cl)c3)CC2)C1=O [F], which “reduction … (statistical significance)” value ([1]; 90 mg/kg, male nude mice) is on record?
Its value is “statistically significant (p<0.01) reduction”.
